# US10174348B2, “Bacteria engineered for ester production” (priority 2013, dated 2019)
# Columns and labels:
# [1] = test system: pyruvate dehydrogenase complex; assay: KDHC activity assay, negative control strain lysate; format: biochemical, E. coli; conditions: 25 mM 2-keto acid, 30° C.
# Description: Cells were grown to an OD600 of ˜0.4 in 5 mL LB medium at 37° C., followed by adding 1 mM IPTG. Protein expression was performed at 30° C. for 2 h. Then 1.8 mL of cells were centrifuged at 16,000×g for 10 min, resuspended in 300 μL BugBuster Protein Extraction Reagent (Novagen), and incubated at room temperature for 20 min for cell lysis. Then samples were centrifuged for 20 min, 16,000×g, at 2° C. The soluble fractions were transferred to chilled 1.5 mL tubes, and the insoluble fractions were suspended in 200 μL BugBuster forming a slurry and kept on ice. KDHC activities were measured by following the conversion of 2-keto acids to acyl-CoA with NAD^+ at 340 nm at 30° C. using a Synergy H1 Hybrid Plate Reader (BioTek Instruments, Inc.). […] Protein concentrations were measured using 5× Advanced Protein Assay Reagent (Cytoskeleton Inc.). […]
# To confirm the activity of KDHC, cell lysates from each strain were prepared and activity was tested in vitro with pyruvate, 2-ketovalerate, 2-ketoisovalerate, 3-methylketovalerate, or 4-methylketovalerate as substrate. Activity was measured by detecting the reduction of NAD^+ in the presence of CoA. […]
# [2] = test system: AL2045; conditions: AL2045 with the acetate assimilating pathway (ackA-pta); 10 g/L acetate
# Description: (§1) Growth of strains in culture medium containing 10 g/L glucose, 10 g/L acetate, or 10 g/L glucose and 10 g/L acetate was compared. Cells were grown at 37° C. on a rotary shaker (250 rpm). Overnight cultures were grown in 3 mL Luria Broth containing appropriate antibiotics. The overnight cultures were inoculated 1% in 5 mL M9 minimal media (containing appropriate antibiotics and 1 mM IPTG) and labeled carbon source in 15-ml screw-cap tubes.
# (§2) Next, the growth of JCL260 and AL2045, which contains ΔaceEF with and without the acetate assimilating pathway (ackA-pta), was compared (FIG. 21).
# [3] = test system: JCL260; conditions: JCL260 without the acetate assimilating pathway; 10 g/L acetate
# Description: as §1, §2
# [4] = cited from earlier work
# [5] = Partitioning between hexadecane layer and culture during production; format: physicochemical; conditions: equal volume of hexadecane over the culture
# Description: Cells were grown in 20 mL media in 250 mL screw-cap flasks at 37° C. until OD600 0.4, then 1 mM IPTG was added. […] Errors are SD (n=3). […] Then 20 mL of culture was transferred to a 250 mL screw-cap flask. […] The strong agitation at which the flask was shaking caused the hexadecane layer to become an emulsion with micelles of culture, but the majority of the culture layer underneath is discernible. The cultures were allowed to produce at 30° C. on a rotary shaker (250 rpm) for 24-96 h. […] For hexadecane layer assisted isobutyl acetate production, the centrifugation of the hexadecane samples separates the aqueous and hexadecane layer into two clear layers. […] The same volume of ethyl acetate (Sigma-Aldrich) as culture was added into the tubes to extract tetradecyl acetate and isobutyl isobutyrate after production at room temperature. These samples were mixed for 1 min and settled for 30 min on ice. The each sample was centrifuged with 20,000×g for 1 min. Then, 1 mL of supernatant was taken for GC analysis.
# [6] = test system: E. coli JCL260; assay: Effect of isobutyl acetate on E. coli growth (toxicity experiments); format: cell-based; conditions: 3 g L^−1 isobutyl acetate; JCL260, 30° C., M9P with 50 g L^−1 glucose
# Description: JCL260 was grown at 30° C. in 5 mL M9P media containing 50 g L^−1 glucose in 15 mL screw-cap tubes. Black Arrow indicates the time point when isobutyl acetate: none (light gray), 1 g L^−1 (black), or 3 g L^−1 (dark gray) was added into culture. Error bars are SD (n=3).
# This strain produced 4.5-fold more isobutyl acetate (2.7 g L^−1) in the first 24 h compared to JCL260 (FIG. 12b-c). This production represents 60% of the theoretical maximum yield (0.42 g isobutyl acetate/g glucose).
compound,measurement,setting,value
CCCC(=O)C(=O)O [2-ketovalerate],activity of negative control strain with 2-keto acid as substrate,[1],30 nmol NADH/min/mg protein
CC(=O)O [Acetate],effect of acetate on growth,[2],enhanced the growth
same,effect of acetate on growth,[3],inhibited the growth
"CC(C)COC(=O)C(C)C [Isobutyl isobutyrate, isobutyl isobutyrate]",water solubility,[4],520 µg/mL
CC(C)CO [isobutanol],remained in the culture,[5],86%
CC(=O)OCC(C)C [isobutyl acetate],E. coli growth in the presence of isobutyl acetate,[6],unable to grow
same,extracted into the hexadecane,[5],97%
